From ChEMBL document CHEMBL2028040, “Malaria Box” come the findings set out here.

Each structure is given as a SMILES string. Bounds are passed on as bounds.

Series [1] has as its system Plasmodium falciparum. The experiment in a line: MMV: Inhibition of Plasmodium falciparum K1 (EC50). It counts as functional, organism-based.
Another series concerns Trypanosoma cruzi. The series can be described thus: MMV: Inhibition of Trypanosoma cruzi (Tulahuen C4 LacZ) (Chagas in vitro). It counts as functional, organism-based.
Series [2] deals with Plasmodium falciparum. The series can be described thus: MMV: Inhibition of Plasmodium falciparum 3D7 at 5uM compound concentration. It counts as functional.
Series [3] deals with Trypanosoma brucei rhodesiense. The experiment in a line: MMV: Inhibition of Trypanosoma brucei rhodesiense (STIB 900) (HAT in vitro). It counts as functional, organism-based.
The subject of series [4] is Plasmodium falciparum. The experiment in a line: MMV: Inhibition of Plasmodium falciparum 3D7 (EC50). It counts as functional, organism-based.
The next series deals with Leishmania infantum. The experiment in a line: MMV: Inhibition of Leishmania infantum (MHOM/MA/BE/67) in vitro. It counts as functional, organism-based.
The nature of series [5]: MMV: Cytotoxicity against human fibroblasts (MRC-5) cells. To be noted: MRC-5 cells (human fibroblasts).
Series [6] has as its system Trypanosoma brucei brucei. The series can be described thus: MMV: Inhibition of Trypanosoma brucei brucei (Squib 427) (HAT in vitro). It counts as functional, organism-based.

`CN(C)CCCNc1c2ccccc2nc2ccccc12`: the half-maximal effective concentration (EC50) (as a rule, the concentration at which the effect is half-maximal) came to 1.56 µM with Plasmodium falciparum [1] and 0.235 µM in the series on Plasmodium falciparum [4]. For the same compound, the half-maximal inhibitory concentration (IC50) (usually the concentration that gives 50% inhibition) was 1 µM in the series with Trypanosoma cruzi; under 0.125 µM in series [3]; 1.01 µM in the series with Leishmania infantum; 2.86 µM in series [5]; under 0.125 µM in series [6]. Further, the inhibition (as a rule, the relative decrease from the control value, in per cent) at 5 µM with Plasmodium falciparum [2] turned out to be 95%.

As for `Cc1ccc(Nc2nc(-c3ccccn3)cs2)cc1`, the values for the EC50 in the series on Plasmodium falciparum [1] and with Plasmodium falciparum [4] were 0.0822 µM and 0.35 µM, respectively. In addition, the IC50 in the series on Trypanosoma cruzi worked out at 0.281 µM; in series [3] it was 14.8 µM; in the series with Leishmania infantum, 5.38 µM; in series [6], 13.4 µM. In the series on Plasmodium falciparum [2], this compound displayed an inhibition at 5 µM of 79%.

In the series on Plasmodium falciparum [1], `CCC(C)NCC(O)(c1ccc(Cl)cc1)c1ccc(Cl)cc1` (stereo not given) returned a concentration for a half-maximal effect (EC50) of 0.398 µM. The half-inhibitory concentration (IC50) is 15 µM with Trypanosoma cruzi; 4.03 µM in series [3]; 16 µM with Leishmania infantum; over 32 µM in series [5]; 4.1 µM in series [6]. The inhibition at 5 µM in the series on Plasmodium falciparum [2] was 98%.

Consider `COc1ccc(CN2CCCC(C(=O)c3ccc(C(F)(F)F)cc3)C2)c(O)c1` (stereo not given), for which, in the series on Plasmodium falciparum [1], a half-maximal response (EC50) required 0.728 µM. Further, the IC50 (with Trypanosoma cruzi; in series [3]; in the series with Leishmania infantum; in series [5]; in series [6]) was over 32 µM each time. In the series with Plasmodium falciparum [2], this compound returned an inhibition at 5 µM of 97%.

On to `COc1ccc2nc(N)nc(C)c2c1`, for which, in the series with Plasmodium falciparum [1], the response was half-maximal at 0.3 µM (EC50). The IC50 in the series on Trypanosoma cruzi is over 32 µM; in series [3] it was 16.3 µM; with Leishmania infantum it was over 32 µM; in series [5], over 32 µM; in series [6], 18.4 µM. The same compound had an inhibition at 5 µM with Plasmodium falciparum [2] of 63%.

In the case of `CCOc1cc2c(cc1OCC)C(c1cc(Cl)ccc1O)NCC2` (stereo not given), the 50% effective concentration (EC50) in the series with Plasmodium falciparum [1] came to 0.206 µM; in the series with Plasmodium falciparum [4] it was 0.746 µM. Further, the half-inhibitory concentration (IC50) is over 32 µM with Trypanosoma cruzi; 1.3 µM in series [3]; over 32 µM in the series with Leishmania infantum; over 32 µM in series [5]; 3 µM in series [6]. Moreover, in the series on Plasmodium falciparum [2], the inhibition at 5 µM came out at 98%.

For `CCOc1cc2c(cc1OCC)C(c1cc(C)c(O)c(C)c1)NCC2` (stereo not given), the EC50 in the series with Plasmodium falciparum [1] was found to be 0.168 µM; in the series with Plasmodium falciparum [4] it was 0.683 µM. In addition, the half-inhibitory concentration (IC50) with Trypanosoma cruzi is over 32 µM; in series [3] it was 4.06 µM; in the series on Leishmania infantum, 17.3 µM; in series [5], over 32 µM; in series [6] it was 12.9 µM. The compound also had an inhibition at 5 µM in the series with Plasmodium falciparum [2] of 97%.

With `CCc1ccc(CNCC(O)c2ccccc2)cc1` (stereo not given), the concentration giving a half-maximal response (EC50) with Plasmodium falciparum [1] was determined as 0.65 µM. The concentration for half-maximal inhibition (IC50) with Trypanosoma cruzi was over 32 µM; in series [3] it was 4.03 µM; in the series with Leishmania infantum, 25.4 µM; in series [5] it was over 32 µM; in series [6] it was 13.3 µM. The compound also returned an inhibition at 5 µM in the series with Plasmodium falciparum [2] of 97%.

Consider `CCOc1cc2c(cc1OCC)C(c1cc(Cl)c(O)c(OCC)c1)NCC2` (stereo not given), for which the EC50 in the series with Plasmodium falciparum [1] came out at 0.651 µM; in the series with Plasmodium falciparum [4] it was 1.33 µM. Moreover, the IC50 with Trypanosoma cruzi is over 32 µM; in series [3], 4.61 µM; with Leishmania infantum, 17.3 µM; in series [5], over 32 µM; in series [6], 11 µM. In addition, 5 µM produced 96% inhibition with Plasmodium falciparum [2].

In the series with Plasmodium falciparum [1], `CC(C)(C)CC(C)(C)NCC(O)COc1ccc2c(c1)CCC2` (stereo not given) had an EC50 of 1.08 µM. Besides, the concentration for half-maximal inhibition (IC50) turned out to be 15.7 µM with Trypanosoma cruzi; 1.02 µM in series [3]; 4.76 µM with Leishmania infantum; 26.1 µM in series [5]; 3.49 µM in series [6]. Moreover, the inhibition at 5 µM in the series on Plasmodium falciparum [2] came to 78%.

On to `CCCCCCn1c(=N)n(CC(O)COc2cccc(C)c2)c2ccccc21` (stereo not given), for which the EC50 amounted to 0.7 µM in the series with Plasmodium falciparum [1] and 1.14 µM with Plasmodium falciparum [4]. The IC50 in the series on Trypanosoma cruzi stood at 3.78 µM; in series [3] it was 0.942 µM; in the series on Leishmania infantum, 2.54 µM; in series [5], 4 µM; in series [6], 1.01 µM. In the series with Plasmodium falciparum [2], this compound returned an inhibition at 5 µM of 98%.

For `O=C(Nc1nc(-c2ccccn2)cs1)c1ccccc1Br`, the 50% effective concentration (EC50) in the series on Plasmodium falciparum [1] was 1.58 µM; with Plasmodium falciparum [4], 1.36 µM. In addition, the IC50 in the series on Trypanosoma cruzi turned out to be 0.26 µM; in series [3], 0.376 µM; in the series on Leishmania infantum it was 1.59 µM; in series [6], 1.04 µM. Also, the inhibition at 5 µM in the series with Plasmodium falciparum [2] stood at 97%.

Take `CCOC(=O)C1(Cc2ccccc2)CCN(Cc2cccc(OC)c2O)CC1`: in the series with Plasmodium falciparum [1], a half-maximal response (EC50) required 1 µM. The IC50 was 17.1 µM in the series with Trypanosoma cruzi; 15.3 µM in series [3]; over 32 µM in the series with Leishmania infantum; over 32 µM in series [5]; 16.7 µM in series [6]. In the series on Plasmodium falciparum [2], this compound gave an inhibition at 5 µM of 95%.

`CCOc1ccc2c(c1)CN(Cc1ccc(Cl)cc1)CO2`: the figures for the EC50 with Plasmodium falciparum [1] and in the series on Plasmodium falciparum [4] were 0.184 µM and 0.439 µM, respectively. For the same compound, the IC50 was over 32 µM in the series on Trypanosoma cruzi; 11 µM in series [3]; over 32 µM in the series on Leishmania infantum; over 32 µM in series [5]; 7 µM in series [6]. The same compound gave an inhibition at 5 µM in the series on Plasmodium falciparum [2] of 97%.

In the case of `CC(C)(C)c1ccc2c(c1)CN(Cc1ccc(Cl)cc1)CO2`, the results for the EC50 in the series with Plasmodium falciparum [1] and with Plasmodium falciparum [4] were 0.107 µM and 0.362 µM, respectively. The concentration for half-maximal inhibition (IC50) with Trypanosoma cruzi is 17.7 µM; in series [3] it was 5.04 µM; with Leishmania infantum, over 32 µM; in series [5], over 32 µM; in series [6] it was 10.1 µM. At 5 µM the inhibition in the series on Plasmodium falciparum [2] was 98%.

On to `COc1ccc(C(=O)NC(c2ccccc2Cl)c2cc(Cl)c3cccnc3c2O)cc1` (stereo not given), for which the EC50 in the series on Plasmodium falciparum [1] was 0.703 µM. Besides, the IC50 (in the series with Trypanosoma cruzi; in series [3]; in the series on Leishmania infantum; in series [5]; in series [6]) was over 32 µM throughout. This compound returned an inhibition at 5 µM with Plasmodium falciparum [2] of 96%.

On to `Cc1cc(=O)oc2c1ccc1oc(C(=O)c3ccccc3)c(C)c12`, for which, in the series on Plasmodium falciparum [1], the midpoint of the response, the EC50, lay at 0.683 µM. Besides, the IC50 is over 32 µM in the series on Trypanosoma cruzi; 20.8 µM in series [3]; over 32 µM in the series with Leishmania infantum; 6.35 µM in series [5]; over 32 µM in series [6]. This compound also displayed an inhibition at 5 µM in the series with Plasmodium falciparum [2] of 94%.

`Oc1ccc(Br)cc1CN1CCN(Cc2ccc(Cl)cc2)CC1` returned a 50% effective concentration (EC50) in the series with Plasmodium falciparum [1] of 0.899 µM. The IC50 with Trypanosoma cruzi was 8.28 µM; in series [3] it was 14.9 µM; in the series on Leishmania infantum it was over 32 µM; in series [5], over 32 µM; in series [6], over 32 µM. In the series on Plasmodium falciparum [2], this compound showed an inhibition at 5 µM of 97%.

The compound `CCOc1c(Cl)cc(CNC(C)C(O)c2ccccc2)cc1OC` (stereo not given) displayed an EC50 in the series on Plasmodium falciparum [1] of 0.706 µM. Besides, the half-inhibitory concentration (IC50) is over 32 µM in the series with Trypanosoma cruzi; 4.09 µM in series [3]; 16.6 µM in the series on Leishmania infantum; over 32 µM in series [5]; 9.51 µM in series [6]. Besides, the inhibition at 5 µM with Plasmodium falciparum [2] was 98%.

Take `COc1ccc(C2Sc3ccccc3N=C3C2=C(O)c2ccccc23)cc1` (stereo not given): the 50% effective concentration (EC50) was found to be 1.93 µM in the series with Plasmodium falciparum [1] and 0.845 µM in the series on Plasmodium falciparum [4]. Also, the IC50 with Trypanosoma cruzi is 4.51 µM; in series [3], 3.54 µM; in the series with Leishmania infantum it was 4.76 µM; in series [5], over 32 µM; in series [6] it was 4 µM. In the series on Plasmodium falciparum [2], the inhibition at 5 µM stood at 96%.

Compound `Cc1ccc(S(=O)(=O)c2c(COC(=O)c3cccc(C)c3)c(-c3ccccc3)nn2C)cc1` gave an EC50 with Plasmodium falciparum [1] of 0.776 µM. Also, the IC50 in the series on Trypanosoma cruzi is 23.6 µM; in series [3] it was 16.5 µM; in the series on Leishmania infantum, 17.3 µM; in series [5], over 32 µM; in series [6], 16.3 µM. 5 µM produced 95% inhibition in the series with Plasmodium falciparum [2].
